The record followed here is patent US7759369B2, “Pyridine compounds for the treatment of prostaglandin mediated diseases” (Glaxo Group Limited, priority 2004, dated 2010).

Each structure is given as a SMILES string. Counter-ions that a name gives are not always drawn. Bounds are passed on as bounds.

Experiment [1] addresses T1, TP receptor (Homo sapiens, UniProt P21731).
T1 construct: expressed in transfected cells; host or cells: CHO-K1
T1 sequence (P21731 1-343): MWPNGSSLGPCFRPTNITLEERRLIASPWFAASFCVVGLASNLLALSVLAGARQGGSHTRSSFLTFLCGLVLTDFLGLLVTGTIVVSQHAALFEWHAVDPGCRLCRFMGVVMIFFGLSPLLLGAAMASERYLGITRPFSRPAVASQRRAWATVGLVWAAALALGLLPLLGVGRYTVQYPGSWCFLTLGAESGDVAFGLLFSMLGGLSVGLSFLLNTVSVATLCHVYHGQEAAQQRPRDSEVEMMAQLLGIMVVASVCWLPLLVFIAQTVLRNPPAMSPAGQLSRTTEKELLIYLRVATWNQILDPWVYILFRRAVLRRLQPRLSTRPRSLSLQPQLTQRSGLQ
Nature of the experiment: human TP calcium mobilisation assay (CHO-K1 cells, U46619, FLIPR). The following applies: free bases or sodium salts; read-out: functional pKi, human TP calcium mobilisation assay (converted). The class given is cell-based. As for the experimental part: To determine if a compound has agonist or antagonist activity at the TP receptor a functional calcium mobilisation assay may be performed. Briefly, the antagonist properties of compounds are assessed by their ability to inhibit the mobilisation of intracellular calcium ([Ca^2+]i) in response to activation of TP receptors by the stable TXA2 mimetic U46619 (9,11-dideoxy-11α,9α-epoxy-methanoprostaglandin F2 α; commercially available from e.g Sigma-Aldrich). Increasing concentrations of antagonist reduce the amount of calcium that a given concentration of U46619 can mobilise. The net effect is to displace the U46619 concentration-effect curve. The amount of calcium produced is assessed using a calcium-sensitive fluorescent dye such as Fluo-4, AM and a suitable instrument such as a Fluorimetric Imaging Plate Reader (FLIPR). Increasing amounts of [Ca^2+]i produced by receptor activation increase the amount of fluorescence produced by the dye and give rise to an increasing signal. The signal may be detected using the FLIPR instrument and the data generated may be analysed with suitable curve-fitting software. The agonist activity of the compounds are determined by their ability to cause an increase in intracellular mobilisation in the absence of U46619.
The human TP calcium mobilisation assay utilises Chinese hamster ovary-K1 (CHO-K1) cells into which a stable (pCIN; BioTechniques 20 (1996): 102-110) vector containing TP cDNA has previously been transfected. Cells are cultured in suitable flasks containing culture medium such as DMEM:F-12 supplemented with 10% v/v foetal calf serum, 2 mM L-glutamine, 0.25 mg/ml geneticin, 100 μM flurbiprofen and 10 μg/ml puromycin.
(§1) For assay, cells are harvested using a proprietary reagent that dislodges cells such as Versene. Cells are re-suspended in a suitable quantity of fresh culture media for introduction into a 96-well plate. Following incubation for 24 hours at 37° C. the culture media is replaced with a medium containing Fluo-4 and the detergent pluronic acid, and a further incubation takes place. Concentrations of compounds are then added to the plate in order to construct concentration-effect curves. This may be performed on the FLIPR in order to assess the agonist properties of the compounds. Concentrations of U46619 are then added to the plate in order to assess the antagonist properties of the compounds.
The data so generated may be analysed by means of a computerised curve-fitting routine. The concentration of compound that elicits a half-maximal inhibition of the calcium mobilisation induced by U46619 (plC50) may then be estimated, and the percentage activation caused by the compounds directly can be used to determine if there is any agonism present.
In general terms: Calcium flux is commonly read through the fluorescence of an indicator in the cells.

The target in experiment [2] is T2, EP1 receptors (Homo sapiens, UniProt P34995).
T2 sequence (P34995 1-402): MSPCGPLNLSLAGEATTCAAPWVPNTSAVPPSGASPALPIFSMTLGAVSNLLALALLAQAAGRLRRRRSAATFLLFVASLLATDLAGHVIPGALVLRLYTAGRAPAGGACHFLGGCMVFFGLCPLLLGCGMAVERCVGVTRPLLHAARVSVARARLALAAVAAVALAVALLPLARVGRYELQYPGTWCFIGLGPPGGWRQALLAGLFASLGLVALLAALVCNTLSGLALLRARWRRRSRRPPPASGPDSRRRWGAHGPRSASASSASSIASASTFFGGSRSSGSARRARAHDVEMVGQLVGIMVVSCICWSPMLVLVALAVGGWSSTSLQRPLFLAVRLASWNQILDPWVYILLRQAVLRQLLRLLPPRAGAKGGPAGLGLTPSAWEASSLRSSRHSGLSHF
The experiment is described as follows: human EP1 calcium mobilisation assay (CHO-K1 cells, PGE2, FLIPR). The class given is cell-based. The arrangement: expressed in transfected cells; host or cells: CHO-K1. The following applies: free bases or sodium salts; averages of a number of experiments; read-out: functional pKi value, human EP1 calcium mobilisation assay (converted). As for the experimental part: Briefly, the antagonist properties of compounds are assessed by their ability to inhibit the mobilisation of intracellular calcium ([Ca^2+]i) in response to activation of EP1 or EP3 receptors by the natural agonist hormone prostaglandin E2 (PGE2). Increasing concentrations of antagonist reduce the amount of calcium that a given concentration of PGE2 can mobilise. The net effect is to displace the PGE2 concentration-effect curve to higher concentrations of PGE2. The amount of calcium produced is assessed using a calcium-sensitive fluorescent dye such as Fluo-4, AM and a suitable instrument such as a Fluorimetric Imaging Plate Reader (FLIPR). Increasing amounts of [Ca^2+]i produced by receptor activation increase the amount of fluorescence produced by the dye and give rise to an increasing signal. The signal may be detected using the FLIPR instrument and the data generated may be analysed with suitable curve-fitting software.
The human EP1 or EP3 calcium mobilisation assay (hereafter referred to as ‘the calcium assay’) utilises Chinese hamster ovary-K1 (CHO-K1) cells into which a stable (pCIN; BioTechniques 20 (1996): 102-110) vector containing either EP1 or EP3 cDNA has previously been transfected. Cells are cultured in suitable flasks containing culture medium such as DMEM:F-12 supplemented with 10% v/v foetal calf serum, 2 mM L-glutamine, 0.25 mg/ml geneticin, 100 μM flurbiprofen and 10 µg/ml puromycin.
as §1, with “384-well” for “96-well”, “PGE2” for “U46619”
The data so generated may be analysed by means of a computerised curve-fitting routine. The concentration of compound that elicits a half-maximal inhibition of the calcium mobilisation induced by PGE2 (pIC50) may then be estimated.

As to `O=C(O)c1cccc(Cc2cc(Cl)ccc2OCC2CCCC2)n1` [Example 14, Sodium 6-({5-chloro-2-[(cyclopentylmethyl)oxy]phenyl}methyl)-2-pyridinecarboxylate], the Ki in experiment [1] and in experiment [2] was under 1000 nM throughout.
Regarding `O=C(O)c1cccc(Cc2cc(Cl)ccc2OCc2cc(F)c(F)cc2F)n1` [Example 10, Sodium 6-[(5-chloro-2-{[(2,4,5-trifluorophenyl)methyl]oxy}phenyl)methyl]-2-pyridinecarboxylate], the Ki in experiment [1] and in experiment [2] was under 1000 nM each time.
In the case of `O=C(O)c1cccc(Cc2cc(Cl)ccc2OCc2ccc(F)cc2F)n1` [Example 4, Sodium 6-[(5-chloro-2-{[(2,4-difluorophenyl)methyl]oxy}phenyl)methyl]-2-pyridinecarboxylate], the Ki in experiment [1] was under 1000 nM; in experiment [2] it was at most 31.6 nM.
For `O=C(NS(=O)(=O)c1ccccc1)c1cccc(Cc2cc(Cl)ccc2OCc2ccc(Cl)cc2F)n1` [Example 28, 6-[(5-chloro-2-{[(4-chloro-2-fluorophenyl)methyl]oxy}phenyl)-methyl]-N-(phenylsulphonyl)-2-pyridinecarboxamide], in that order: under 1000 nM and at most 31.6 nM.
As to `O=C(NS(=O)(=O)c1ccc(Br)cc1)c1cccc(Cc2cc(Cl)ccc2OCc2ccc(Cl)cc2F)n1` [Example 33, N-[(4-Bromophenyl)sulphonyl]-6-[(5-chloro-2-{[(4-chloro-2-fluorophenyl)methyl]oxy}phenyl)-methyl]-2-pyridinecarboxamide], the Ki was over 1000 nM in experiment [1] and under 1000 nM in experiment [2].
For `CCCS(=O)(=O)NC(=O)c1cccc(Cc2cc(Cl)ccc2OCc2ccc(Cl)cc2F)n1` [Example 30, 6-[(5-Chloro-2-{[(4-chloro-2-fluorophenyl)methyl]oxy}-phenyl)methyl]-N-(propylsulphonyl)-2-pyridinecarboxamide], in that order: under 1000 nM and at most 31.6 nM.
The like results for `O=C(O)c1cccc(Cc2cc(Cl)ccc2OCc2ccc(F)cc2Cl)n1` [Example 11, Sodium 6-[(5-chloro-2-{[(2-chloro-4-fluorophenyl)methyl]oxy}phenyl)methyl]-2-pyridinecarboxylate] were, in that order, under 1000 nM and under 1000 nM.
For `Fc1cc(Cl)ccc1COc1ccc(Cl)cc1Cc1cccc(-c2nnn[nH]2)n1` [Example 38, 2-[(5-Chloro-2-{[(4-chloro-2-fluorophenyl)methyl]oxy}phenyl)-methyl]-6-(1H-tetrazol-5-yl)pyridine], in that order: at most 31.6 nM and at most 31.6 nM.
With `O=C(NS(=O)(=O)c1cccc(Br)c1)c1cccc(Cc2cc(Cl)ccc2OCc2ccc(Cl)cc2F)n1` [Example 34, N-[(3-Bromophenyl)sulphonyl]-6-[(5-chloro-2-{[(4-chloro-2-fluorophenyl)methyl]oxy}phenyl)-methyl]-2-pyridinecarboxamide], the Ki in experiment [1] and in experiment [2] was at most 31.6 nM each time.
On to `O=C(O)c1cccc(Cc2cc(Cl)ccc2OCc2ccc(Cl)cc2Cl)n1` [Example 12, Sodium 6-[(5-chloro-2-{[(2,4-dichlororophenyl)methyl]oxy}phenyl)methyl]-2-pyridinecarboxylate], for which the Ki in experiment [1] and in experiment [2] was at most 31.6 nM in each case.
In the case of `Cc1noc(C)c1S(=O)(=O)NC(=O)c1cccc(Cc2cc(Cl)ccc2OCc2ccc(Cl)cc2F)n1` [Example 36, 6-[(5-Chloro-2-{[(4-chloro-2-fluorophenyl)methyl]oxy}-phenyl)methyl]-N-[(3,5-dimethyl-4-isoxazolyl)sulphonyl]-2-pyridinecarboxamide], the Ki was under 1000 nM in experiment [1] and at most 31.6 nM in experiment [2].
For `CS(=O)(=O)NC(=O)c1cccc(Cc2cc(Cl)ccc2OCc2ccc(Cl)cc2F)n1` [Example 29, 6-[(5-Chloro-2-{[(4-chloro-2-fluorophenyl)methyl]oxy}-phenyl)methyl]-N-(methylsulphonyl)-2-pyridinecarboxamide], in that order: over 1000 nM and at most 31.6 nM.
Consider `Cc1ccc(C(=O)O)nc1Cc1cc(Cl)ccc1OCc1ccc(Cl)cc1F` [Example 39, 6-[(5-Chloro-2-{[(4-chloro-2-fluorophenyl)methyl]oxy}-phenyl)methyl]-5-methyl-2-pyridinecarboxylic acid, sodium salt], for which the Ki in experiment [1] was at most 31.6 nM; in experiment [2], under 1000 nM.
With `O=C(O)c1cccc(Cc2cc(Cl)ccc2OCc2ccc(Cl)cc2F)n1` [Example 3, Sodium 6-[(5-chloro-2-{[(4-chloro-2-fluorophenyl)methyl]oxy}phenyl)methyl]-2-pyridinecarboxylate], the Ki in experiment [1] and in experiment [2] was at most 31.6 nM in each case.
